Reference: US7666587B2, “Method of screening test substances for treating or preventing a disease mediated by plasma cells” (priority 2002, dated 2010)
Residues, ends and D or L forms follow the SMILES beside them. *: point of attachment. Cbz = O=C(OCc1ccccc1)*

Legend:
XBP-1 [1] = test: Metabolic pulse labelling and immunoprecipitation of endogenous XBP-1 proteins; format: cell-based, mouse
Method: Mouse embryonic fibroblasts and ES cells lacking IRE1 activity (IRE1α−/− or IRE1α, IRE1β−/−) and PERK−/−fibroblasts were cultured as previously described (Harding et al., “Regulated Translation Initiation Controls Stress-Induced Gene Expression in Mammalian Cells,” Mol. Cell 6:1099-1108 (2000); and Urano et al., “Coupling of Stress in the Endoplasmic Reticulum to Activation of JNK Protein Kinases by Transmembrane Protein Kinase IRE1,” Science 287:664-666 (2000), which are hereby incorporated by reference in their entirety). Cells were treated with tunicamycin (2.5 μg/ml, Calbiochem), thapsigargin (100 nM, Sigma), dithiothreitol (2 mM, Sigma) or the proteasome inhibitor MG132 (25 μM, Calbiochem) as indicated. To prepare B-cell blasts, cells were teased from crushed adult mouse spleen and cultured in the presence of 25 μg/ml E. coli lipopolysaccharide.
Newly synthesized proteins were labeled in vivo with ^35S-methionine and ^35S-cysteine (500 μCi/ml, Translabel, ICN Biochemicals). After removal of the labeling media cells were washed and incubated in complete media for cold-chase. […] Incorporation of radiolabel was quantified by phosphoimager analysis. In calculating the relative synthesis rates of 54 kDa XBP-1 and 33 kDa XBP-1 the relative incorporation of label was corrected for differences in the content of methionine (7:6) and cysteine (4:3) predicted for the two proteins. […]

XBP-1 [2] = test: XBP-1 immunoblot during in vitro differentiation of B-cells to plasma cells; format: cell-based; conditions: mouse spleen cells, 25 μg/ml E. coli lipopolysaccharide
Method: (§1) Mouse embryonic fibroblasts and ES cells lacking IRE1 activity (IRE1α−/− or IRE1α, IRE1β−/−) and PERK−/−fibroblasts were cultured as previously described (Harding et al., “Regulated Translation Initiation Controls Stress-Induced Gene Expression in Mammalian Cells,” Mol. Cell 6:1099-1108 (2000); and Urano et al., “Coupling of Stress in the Endoplasmic Reticulum to Activation of JNK Protein Kinases by Transmembrane Protein Kinase IRE1,” Science 287:664-666 (2000), which are hereby incorporated by reference in their entirety). Cells were treated with tunicamycin (2.5 μg/ml, Calbiochem), thapsigargin (100 nM, Sigma), dithiothreitol (2 mM, Sigma) or the proteasome inhibitor MG132 (25 μM, Calbiochem) as indicated. […]
(§2) XBP-1 proteins in whole cell extracts were detected by immunoblot of 9% PAGE-SDS using a rabbit polyclonal serum directed to residues 97-267 common to both 54 kDa and 33 kDa XBP-1 proteins (sc-7160, Santa Cruz Biotechnology). XBP-1 proteins in transfected cells were detected by a monoclonal antibody to the FLAG epitope tag (Kodak-IBI). CREB and CHOP were detected as described previously (Harding et al., “Regulated Translation Initiation Controls Stress-Induced Gene Expression in Mammalian Cells,” Mol. Cell 6:1099-1108 (2000), which is hereby incorporated by reference in its entirety).

hsp-4::gfp = hsp-4::gfp transcriptional reporter induction in C. elegans (UPR); format: in vivo; conditions: gut and hypodermis; plates containing 5 μg/ml tunicamycin
Excerpt: A 1.1 kilobase (Kb) fragment of C. elegans genomic DNA immediately 5′ of the predicted initiation ATG of hsp-4 was amplified by PCR and ligated in-frame with GFP in the plasmid pPD95.75 (gift of Andy Fire, Carnegie Institute of Washington). The hsp-4::gfp(zcIs4) V strain was generated by co-injecting the hsp-4::gfp clone with the lin-15 rescuing plasmid, pSK1 (Clark et al., “The Caenorhabditis elegans Locus Lin-15, a Negative Regulator of a Tyrosine Kinase Signaling Pathway, Encodes Two Different Proteins,” Genetics 137:987-997 (1994), which is hereby incorporated by reference in its entirety), into lin-15(n765ts) animals and then integrating the extrachromosomal array with ultraviolet/trimethylpsoralen (UV/TMP) treatment. The F2 progeny of ethylmethane sulphonate (EMS)-treated hsp-4::gfp(zcIs4)V animals were screened for mutants with high levels of GFP expression to identify mutations that constitutively induce the UPR. Several mutations were recovered, including upr-1(zc6)X, which induced a high level of GFP expression in the posterior gut. To isolate mutations that blocked hsp-4::gfp induction, the F2 progeny of EMS-treated hsp-4::gfp(zcIs4) V; upr-1(zc6)X animals were screened for mutants with a reduced GFP signal. The mutations were mapped using standard methods. […]

XBP-1 [3] = test: Immunoblot of FLAG-tagged XBP-1 in transfected HEK 293T cells; format: cell-based, human; conditions: HEK 293T cells transfected with XBP-1^up
Method: as §1, §2

Q: Which “levels of 33 kDa XBP-1 protein” value (XBP-1 [1]; mouse fibroblasts, MG132 25 μM) does the source give for `CC(C)C[C@@H](C=O)NC(=O)[C@H](CC(C)C)NC(=O)[C@H](CC(C)C)NC(=O)OCc1ccccc1` [proteasome inhibitor, MG132] (Cbz-Leu-Leu-Leu-aldehyde) here?
A: The value was “increased further”.

Q: With bacterial lipopolysaccharide as the molecule, how does the “induction of 54 kDa XBP-1 protein” value (XBP-1 [2]) read?
A: The value was “induced”.

Q: What does the source list for tunicamycin?
A: hsp-4::gfp expression (hsp-4::gfp): strongly induced; expression of FLAG-tagged 54 kDa XBP-1 protein (XBP-1 [3]): expressed high levels of FLAG-tagged 54 kDa protein; accumulation of endogenous 54 kDa XBP-1 (XBP-1 [1]; pulse-labeled wildtype cells, tunicamycin 2.5 μg/ml): accumulated to high levels
